Results on one compound are retold here after patent US9174994B2, “Enhanced treatment regimens using mTor inhibitors” (INTELLIKINE LLC, priority 2011, dated 2015).

This data set in a line: Phase I clinical trial: plasma pharmacokinetics. In kind it is in vivo, human. How it is done:
Adult patients with histologically confirmed advanced solid tumors were enrolled in a 3+3 dose escalation Phase I study evaluating 3 intermittent schedules of administration for compound A: QW (once weekly), QD×3d QW (3 days on 4 days off), and QD×5d QW (5 days on 2 days off), in comparison with daily dosing (QD). Safety, maximum tolerated dose (MTD), pharmacokinetics (PK) and preliminary antitumor activity were evaluated.

For `CC(C)n1nc(-c2ccc3oc(N)nc3c2)c2c(N)ncnc21` [compound A], the “Time per week (hrs) above 100 nM plasma conc.” value turned out to be 20 h (6 mg QD); 25 h (10 mg Q5D); 30 h (13 mg Q5D); 30 h (16 mg Q3D); 35 h (20 mg Q3D); 15 h (30 mg QW). In addition, where the note is “40 mg QW”, the “Time per week (hrs) above 100 nM plasma conc.” value was found to be 20 h. For the setting “following oral doses”, the “Plasma exposures (Cmax and AUC0-24): dose dependence” value is on record as “dose-linear plasma PK”.
